For 11 compounds, IC50 results are on record in patent US11780830B2, “Triazolone derivatives or salts thereof and pharmaceutical compositions comprising the same” (YUHAN CORPORATION, priority 2018, dated 2023).

Structures can show the parent of a compound that is named as a salt. Where only a bound is given, the exact number is not on record here.

Holding throughout (assay type): biochemical
Experiment [1] deals with T1, recombinant human DAO (diamine oxidase) (Homo sapiens, UniProt P19801).
T1 construct: purchased R&D systems
T1 sequence (P19801 20-751): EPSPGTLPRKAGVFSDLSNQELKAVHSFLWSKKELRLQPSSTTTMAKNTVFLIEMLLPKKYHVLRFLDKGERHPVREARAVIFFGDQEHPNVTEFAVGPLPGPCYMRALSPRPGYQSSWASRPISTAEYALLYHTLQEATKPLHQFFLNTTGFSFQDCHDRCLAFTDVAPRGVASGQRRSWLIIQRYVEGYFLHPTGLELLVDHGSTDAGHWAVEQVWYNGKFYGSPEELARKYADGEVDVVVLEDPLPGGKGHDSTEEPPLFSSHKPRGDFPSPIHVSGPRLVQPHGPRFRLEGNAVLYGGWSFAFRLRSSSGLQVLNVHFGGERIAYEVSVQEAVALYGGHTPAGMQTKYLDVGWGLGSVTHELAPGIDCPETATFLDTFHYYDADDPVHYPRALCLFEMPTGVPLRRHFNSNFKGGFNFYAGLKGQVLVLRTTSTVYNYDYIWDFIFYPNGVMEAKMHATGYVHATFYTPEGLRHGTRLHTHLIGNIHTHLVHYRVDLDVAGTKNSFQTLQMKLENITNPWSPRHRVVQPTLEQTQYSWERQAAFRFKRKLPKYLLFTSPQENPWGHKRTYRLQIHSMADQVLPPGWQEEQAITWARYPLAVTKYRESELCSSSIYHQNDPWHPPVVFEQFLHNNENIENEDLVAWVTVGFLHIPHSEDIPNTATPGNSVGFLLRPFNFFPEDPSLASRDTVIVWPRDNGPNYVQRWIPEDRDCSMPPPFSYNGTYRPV
Put plainly: Activity on recombinant human DAO, method similar to the VAP-1 assay. Particulars: substrate 1 mM putrescine; read-out: Inhibitory Activity (IC50, nM) DAO. A digest of the protocol: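 Inhibition of recombinant human diamine oxidase (DAO, R&D systems) was assessed by the same approach as the VAP-1 assay, using 1 mM putrescine as substrate. Hydrogen peroxide formed was detected through an HRP-coupled Amplex Red reaction yielding fluorescent resorufin, read at 544 nm excitation and 590 nm emission. IC50 values came from four-parameter logistic fitting in GraphPad Prism.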

The next experiment addresses T2, recombinant human VAP-1 (Homo sapiens, UniProt Q16853).
T2 construct: purchased R&D systems
T2 sequence (Q16853 1-763): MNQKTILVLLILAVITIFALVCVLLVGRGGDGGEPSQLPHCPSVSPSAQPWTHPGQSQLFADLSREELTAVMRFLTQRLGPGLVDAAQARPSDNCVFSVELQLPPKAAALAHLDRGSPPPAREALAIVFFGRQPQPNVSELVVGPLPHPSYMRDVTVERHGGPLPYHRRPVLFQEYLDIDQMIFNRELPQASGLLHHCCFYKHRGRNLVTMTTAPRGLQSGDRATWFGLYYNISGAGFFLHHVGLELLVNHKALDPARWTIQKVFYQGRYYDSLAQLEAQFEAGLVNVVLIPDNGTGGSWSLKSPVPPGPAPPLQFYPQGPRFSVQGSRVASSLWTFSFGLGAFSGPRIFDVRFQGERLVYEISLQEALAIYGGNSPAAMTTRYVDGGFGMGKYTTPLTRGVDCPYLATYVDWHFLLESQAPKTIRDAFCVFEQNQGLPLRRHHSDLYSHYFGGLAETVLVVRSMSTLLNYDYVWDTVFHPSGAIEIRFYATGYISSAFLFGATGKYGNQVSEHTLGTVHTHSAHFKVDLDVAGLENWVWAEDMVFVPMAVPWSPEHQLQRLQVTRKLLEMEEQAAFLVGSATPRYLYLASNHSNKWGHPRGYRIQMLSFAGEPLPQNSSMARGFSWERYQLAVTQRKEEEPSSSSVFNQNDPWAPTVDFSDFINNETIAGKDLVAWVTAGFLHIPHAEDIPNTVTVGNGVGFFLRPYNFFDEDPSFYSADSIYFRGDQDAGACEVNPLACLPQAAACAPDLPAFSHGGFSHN
Put plainly: Activity on recombinant human VAP-1, HRP-coupled Amplex Red hydrogen peroxide assay. Particulars: substrate 1 mM benzylamine; compound incubated with enzyme at 37° C. for 30 minutes; pH 7.4; read-out: Inhibitory Activity (IC50, nM) human VAP-1. In short, it runs like this:
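Dose-response IC50 determined from reduction in resorufin signal rate (544/590 nm, 1-2 h), with 30 min compound preincubation at 37 °C and 1 mM benzylamine as substrate.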

Experiment [2] concerns the target T3, recombinant human MAO-A (monoamine oxidase-A) (Homo sapiens, UniProt P21397).
T3 construct: purchased Sigma-Aldrich
T3 sequence (P21397 1-527): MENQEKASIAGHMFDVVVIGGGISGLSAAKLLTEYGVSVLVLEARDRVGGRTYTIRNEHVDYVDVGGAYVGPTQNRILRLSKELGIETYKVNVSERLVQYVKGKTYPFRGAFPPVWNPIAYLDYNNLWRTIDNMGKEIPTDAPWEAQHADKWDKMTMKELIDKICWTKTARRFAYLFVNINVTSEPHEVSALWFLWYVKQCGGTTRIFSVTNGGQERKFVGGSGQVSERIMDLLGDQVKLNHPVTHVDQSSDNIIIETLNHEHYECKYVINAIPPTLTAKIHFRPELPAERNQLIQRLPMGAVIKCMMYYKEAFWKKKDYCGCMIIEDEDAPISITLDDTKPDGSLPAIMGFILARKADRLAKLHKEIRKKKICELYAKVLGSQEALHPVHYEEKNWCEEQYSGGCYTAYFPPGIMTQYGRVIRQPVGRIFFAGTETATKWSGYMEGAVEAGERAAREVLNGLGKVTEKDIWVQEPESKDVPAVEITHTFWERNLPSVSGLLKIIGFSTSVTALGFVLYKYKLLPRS
Put plainly: Activity on recombinant human MAO-A, method similar to the VAP-1 assay. As to conditions: substrate 0.5 mM tyramine; read-out: Inhibitory Activity (IC50, nM) MAO-A. In short, it runs like this:
(§1)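 Amplex Red/HRP coupled read-out of H2O2 with 0.5 mM tyramine for MAO-A or 1 mM benzylamine for MAO-B, following a 30-min compound–enzyme preincubation at 37° C. IC50 from percent inhibition of signal rate relative to uninhibited control.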

In experiment [3] the target is T4, recombinant human MAO-B (monoamine oxidase-B) (Homo sapiens, UniProt P27338).
T4 construct: purchased Sigma-Aldrich
T4 sequence (P27338 1-520): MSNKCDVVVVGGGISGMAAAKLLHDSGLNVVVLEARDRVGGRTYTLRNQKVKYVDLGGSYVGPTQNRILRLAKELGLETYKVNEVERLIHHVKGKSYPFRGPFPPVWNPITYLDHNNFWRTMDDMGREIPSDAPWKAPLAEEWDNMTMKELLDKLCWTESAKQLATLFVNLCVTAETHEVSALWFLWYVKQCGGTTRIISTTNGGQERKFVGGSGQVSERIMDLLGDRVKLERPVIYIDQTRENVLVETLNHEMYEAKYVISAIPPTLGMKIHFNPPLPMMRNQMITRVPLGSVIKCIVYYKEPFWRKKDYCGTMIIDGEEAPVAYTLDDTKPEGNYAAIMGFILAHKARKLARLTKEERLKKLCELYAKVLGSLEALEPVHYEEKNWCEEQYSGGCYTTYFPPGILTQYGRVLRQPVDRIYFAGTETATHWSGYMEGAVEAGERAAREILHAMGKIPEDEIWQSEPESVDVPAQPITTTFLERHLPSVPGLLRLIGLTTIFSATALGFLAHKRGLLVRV
Put plainly: Activity on recombinant human MAO-B, method similar to the VAP-1 assay. As to conditions: substrate 1 mM benzylamine; read-out: Inhibitory Activity (IC50, nM) MAO-B. A digest of the protocol:
as §1

Consider `Cc1cc(-c2ccc(Cn3cnn(C/C(=C/F)CN)c3=O)s2)n(C)n1` [Example 158, 2-[(2E)-2-(aminomethyl)-3-fluoroprop-2-en-1-yl]-4-{[5-(1,3-dimethyl-1H-pyrazol-5-yl)thiophen-2-yl]methyl}-2,4-dihydro-3H-1,2,4-triazol-3-one], for which the IC50 – broadly, the midpoint of a concentration-inhibition curve – in experiment [1] is 340 nM; on recombinant human VAP-1 it was 1.9 nM; in experiment [2], over 100000 nM; in experiment [3], 430 nM.

In the case of `NC/C(=C/F)Cn1ncn(Cc2ccc(-c3ccc4nonc4c3)s2)c1=O` [Example 61, 2-[(2Z)-2-(aminomethyl)-3-fluoroprop-2-en-1-yl]-4-[5-(2,1,3-benzooxadiazol-5-yl)thiophen-2-yl]methyl-2,4-dihydro-3H-1,2,4-triazol-3-one hydrochloride], the half-maximal inhibitory concentration (IC50) in experiment [1] is under 100 nM; at recombinant human VAP-1, 1.1 nM; in experiment [2] it was 16000 nM; in experiment [3] it was 10.1 nM.

As for `NC/C(=C\F)Cn1ncn(Cc2ccc(Br)s2)c1=O` [Example 2, 2-[(2E)-2-(aminomethyl)-3-fluoroprop-2-en-1-yl]-4-[(5-bromothiophen-2-yl)methyl]-2,4-dihydro-3H-1,2,4-triazol-3-one hydrochloride], the IC50 is 3300 nM in experiment [1], 5.2 nM at recombinant human VAP-1, over 100000 nM in experiment [2] and 14 nM in experiment [3].

With `NC/C(=C\F)Cn1ncn(Cc2ccc(/C=C/c3ccc(C(F)(F)F)cc3)s2)c1=O` [Example 119, 2-[(E)-2-(aminomethyl)-3-fluoro-allyl]-4-[[5-[(E)-2-[4-(trifluoromethyl)phenyl]vinyl]-2-thienyl]methyl]-1,2,4-triazol-3-one hydrochloride], the IC50 in experiment [1] is 860 nM; at recombinant human VAP-1, 1.8 nM; in experiment [2] it was over 100000 nM; in experiment [3] it was 1200 nM.

`CS(=O)(=O)Nc1ccc(-c2ccc(Cn3cnn(C/C(=C/F)CN)c3=O)s2)cc1` [Example 7, N-4-[5-(1-[(2E)-2-(aminomethyl)-3-fluoroprop-2-en-1-yl]-5-oxo-1,5-dihydro-4H-1,2,4-triazol-4-ylmethyl)thiophen-2-yl]phenylmethansulfonamide hydrochloride]: the IC50 turned out to be 1000 nM in experiment [1], 0.4 nM on recombinant human VAP-1, 35000 nM in experiment [2] and 11000 nM in experiment [3].

On to `CC1Oc2ccc(-c3ccc(Cn4cnn(C/C(=C/F)CN)c4=O)s3)cc2NC1=O` (centres unmarked) [Example 97, 6-[5-[[1-[(E)-2-(aminomethyl)-3-fluoro-allyl]-5-oxo-1,2,4-triazol-4-yl]methyl]-2-thienyl]-2-methyl-4H-1,4-benzoxazin-3-one hydrochloride], for which the IC50 in experiment [1] stood at 230 nM; at recombinant human VAP-1 it was 0.4 nM; in experiment [2], 28000 nM; in experiment [3], 380 nM.

With `NC/C(=C\F)Cn1ncn(Cc2ccc(C#Cc3cnc4c(c3)OCC(=O)N4)s2)c1=O` [Example 139, 7-[2-[5-[[1-[(E)-2-(aminomethyl)-3-fluoro-allyl]-5-oxo-1,2,4-triazol-4-yl]methyl]-2-thienyl]ethynyl]-4H-pyrido[3,2-b][1,4]oxazin-3-one hydrochloride], the IC50 was 290 nM in experiment [1], 0.5 nM on recombinant human VAP-1, over 100000 nM in experiment [2] and 73 nM in experiment [3].

With `CN(C)c1ccc(-c2ccc(CCn3cnn(C/C(=C/F)CN)c3=O)s2)cn1` [Example 220, 2-[(2E)-2-(aminomethyl)-3-fluoroprop-2-en-1-yl]-4-(2-{5-[6-(dimethylamino)pyridin-3-yl]thiophen-2-yl}ethyl)-2,4-dihydro-3H-1,2,4-triazol-3-one], the IC50 was 520 nM in experiment [1], 0.7 nM on recombinant human VAP-1, over 100000 nM in experiment [2] and 25000 nM in experiment [3].

For the compound `NC/C(=C\F)Cn1ncn(CCc2cccs2)c1=O` [Example 141, 2-[(2E)-2-(aminomethyl)-3-fluoroprop-2-en-1-yl]-4-[2-(thiophen-2-yl)ethyl]-2,4-dihydro-3H-1,2,4-triazol-3-one], the IC50 in experiment [1] is 4200 nM; on recombinant human VAP-1 it was 9.2 nM; in experiment [2], over 100000 nM; in experiment [3], over 10000 nM.

With `CC(=O)Nc1nc2cc(-c3ccc(Cn4cnn(C/C(=C/F)CN)c4=O)s3)ccc2s1` [Example 189, N-{5-[5-({1-[(2E)-2-(aminomethyl)-3-fluoroprop-2-en-1-yl]-5-oxo-1,5-dihydro-4H-1,2,4-triazol-4-yl}methyl)thiophen-2-yl]-1,3-benzothiazol-2-yl}acetamide], the IC50 is 780 nM in experiment [1], 0.7 nM on recombinant human VAP-1, 22500 nM in experiment [2] and 420 nM in experiment [3].

`NC/C(=C/F)Cn1ncn(Cc2ccc(-c3ccc(N)cc3)s2)c1=O` [Example 3, 2-[(2Z)-2-(aminomethyl)-3-fluoroprop-2-en-1-yl]-4-[5-(4-aminophenyl)thiophen-2-yl]methyl-2,4-dihydro-3H-1,2,4-triazol-3-one hydrochloride]: the concentration for half-maximal inhibition (IC50) in experiment [1] amounted to 860 nM; on recombinant human VAP-1 it was 4.7 nM; in experiment [2], 72000 nM; in experiment [3], 21 nM.
